From ChEMBL document CHEMBL2331303, “N-(Phenoxyalkyl)amides as MT(1) and MT(2) ligands: antioxidant properties and inhibition of Ca(2+)/CaM-dependent kinase II” (Bioorg Med Chem, 2013)
The source made the active and inactive calls. The calls are words filed in the database; no cut-off is given here.

Tests used:
[1] = system: HepG2; assay: Antioxidant activity in human HepG2 cells assessed as reduction in H2O2-induced oxidation by DCFH-DA assay; assay type: functional, cell-based
[2] = system: Radical scavenging activity; assay: Antioxidant activity assessed as DPPH radical scavenging activity at 0.1 mM; assay type: functional
[3] = system: Radical scavenging activity; assay: Antioxidant activity assessed as DPPH radical scavenging activity at 1 mM; assay type: functional
[4] = Inhibition of active recombinant full-length CaMK2 (unknown origin) using Autocamtide substrate and [gamma32P]ATP after 30 mins by scintillation counting method; design: species or system Homo sapiens
[5] = system: Radical scavenging activity; assay: Antioxidant activity assessed as DPPH radical scavenging activity at 5.5 mM; assay type: functional
[6] = system: Radical scavenging activity; assay: Antioxidant activity assessed as DPPH radical scavenging activity; assay type: functional; details: dose or concentration not given here
[7] = system: HepG2; assay: Cytoprotective activity in human HepG2 cells assessed as reduction in H2O2-induced cell death at 10 to 100 ug/mL incubated for 2 hrs by MTT assay; assay type: functional, cell-based
[8] = system: HepG2; assay: Cytoprotective activity in human HepG2 cells assessed as reduction in H2O2-induced cell death at 100 ug/mL incubated for 2 hrs by MTT assay; assay type: functional; design: scale not given: the % may be the effect or the level left

Row | SMILES | IC50 [1] [µM] | inhibition [2] [%] | inhibition [3] [%] | IC50 [4] [µM] | inhibition [5] [%] | further results
1 | CC(=O)NCCOc1ccccc1 | > 1000 |  |  |  |  | 
2 | COc1ccc2[nH]cc(CCNC(C)=O)c2c1 [MELATONIN] | 271 | 2.1 | 7.8 | 128 | 31.8 | 
3 | CC(=O)NCC(C)Oc1ccccc1 (racemic) | > 1000 |  |  |  |  | 
4 | COc1cccc(OC(C)CNC(=O)C2CC2)c1 (racemic) | > 1000 |  |  | 107 |  | 
5 | CC(=O)NC(C)COc1ccccc1 (racemic) | > 1000 |  |  |  |  | 
6 | O=C(O)c1cc(O)c(O)c(O)c1 |  | 97.1 |  |  |  | inhibition [6]: 6%
7 | COc1cccc(O[C@@H](C)CNC(=O)C2CC2)c1 |  |  |  | 117 |  | 
8 | CCCC(=O)NC[C@H](C)Oc1cccc(OC)c1 | > 1000 | 2.8 | 1.3 | 77 | 15.1 | 
9 | COc1cccc(O[C@H](C)CNC(=O)C2CC2)c1 |  |  |  | 129 |  | 
10 | CCCC(=O)NC[C@@H](C)Oc1cccc(OC)c1 | 183 | 5.6 | 5.1 | 129 | 20.7 | Activity [7]: Active; Activity [8]: 100%
11 | COc1cccc(OC(C)CNC(C)=O)c1 (racemic) | > 1000 |  |  |  |  | 
12 | CCCC(=O)NCC(C)Oc1cccc(OC)c1 (racemic) | 226 | 3.22 | 4.05 | 122 | 11.7 | Activity [7]: Active
